The record followed here is PMC9080333 (RSC Advances, 2018).

For data set [1], the system named is Mycobacterium tuberculosis H37Rv. Kind of data set: In vitro MTB Microplate Alamar Blue Assay. The data set is classed as cell-based.
In data set [2] the test system is RAW 264.7 cells. The note with it: RAW 264.7 cell line, MTT assay, 50 μg mL^−1, 48 h incubation. (Tetrazolium assays rely on reduction of a dye to a coloured formazan, in cell work by metabolically active cells.)
[3] abbreviates: Mycobacterium tuberculosis, H37RV, M. tuberculosis H37Rv, MABA, average of duplicates.
[4] abbreviates: against MTB, in vitro (conclusion).
[5] abbreviates: Mycobacterium tuberculosis, H37RV, 168 h, M. tuberculosis H37Rv, MABA, average of duplicates.
The mark [6] stands for this setting: M. tuberculosis H37Rv, MABA, average of duplicates.

Values after ≈ are worked out from the molar mass of the structure shown.

Regarding `Cc1ccc2c(c1)C=CC1(CCc3c(nnn3-c3ccccc3)C1)O2` (centres unmarked) [Compound 7a, 6′-Methyl-1-phenyl-1,4,6,7-tetrahydrospiro[benzo[d][1,2,3]triazole-5,2′-chromene]], the MIC in data set [1] (setting [3]) was 4.74 µM (≈ 1.56 µg/mL); in data set [1] (setting [4]), 1.56 µg. In addition, the “Cytotoxicity in % inhibition at 50 μg mL^−1” value (shortened to “Cytotoxicity in % inhibition”) in data set [2] worked out at 30.23%.

The compound `Cc1ccc(-n2nnc3c2CCC2(C=Cc4cc(C)ccc4O2)C3)cc1` (centres unmarked) [Compound 7b, 6′-Methyl-1-(p-tolyl)-1,4,6,7-tetrahydrospiro[benzo[d][1,2,3]triazole-5,2′-chromene]] displayed an MIC in data set [1] (setting [5]) of 75.8 µM (≈ 26 µg/mL).

Compound `Cc1ccc2c(c1)C=CC1(CCc3c(nnn3-c3ccc(Cl)cc3)C1)O2` (centres unmarked) [Compound 7c, 1-(4-Chlorophenyl)-6′-methyl-1,4,6,7-tetrahydrospiro[benzo[d][1,2,3]triazole-5,2′-chromene]] yielded an MIC in data set [1] (setting [3]) of 34.4 µM (≈ 12.5 µg/mL).

In the case of `COc1ccc(-n2nnc3c2CCC2(C=Cc4cc(C)ccc4O2)C3)cc1` (centres unmarked) [Compound 7d, 1-(4-Methoxyphenyl)-6′-methyl-1,4,6,7-tetrahydrospiro[benzo[d][1,2,3]triazole-5,2′-chromene]], the MIC came to 4.34 µM (≈ 1.56 µg/mL) in data set [1] (setting [3]) and 1.56 µg in data set [1] (setting [4]). For the same compound, the “Cytotoxicity in % inhibition” value in data set [2] stood at 33.14%.

Compound `Cc1ccc2c(c1)C=CC1(CCc3c(nnn3Cc3ccccc3)C1)O2` (centres unmarked) [Compound 7e, 1-Benzyl-6′-methyl-1,4,6,7-tetrahydrospiro[benzo[d][1,2,3]triazole-5,2′-chromene]] showed an MIC in data set [1] (setting [5]) of 75.8 µM (≈ 26 µg/mL).

With `Clc1ccc2c(c1)C=CC1(CCc3c(nnn3-c3ccccc3)C1)O2` (centres unmarked) [Compound 7f, 6′-Chloro-1-phenyl-1,4,6,7-tetrahydrospiro[benzo[d][1,2,3]triazole-5,2′-chromene]], in data set [1] (setting [3]), the MIC was 17.9 µM (≈ 6.26 µg/mL). The “Cytotoxicity in % inhibition” value in data set [2] turned out to be 21.41%.

The compound `Cc1ccc(-n2nnc3c2CCC2(C=Cc4cc(Cl)ccc4O2)C3)cc1` (centres unmarked) [Compound 7g, 6′-Chloro-1-(p-tolyl)-1,4,6,7-tetrahydrospiro[benzo[d][1,2,3]triazole-5,2′-chromene]] registered an MIC in data set [1] (setting [3]) of 68.9 µM (≈ 25.1 µg/mL).

Regarding `Clc1ccc(-n2nnc3c2CCC2(C=Cc4cc(Cl)ccc4O2)C3)cc1` (centres unmarked) [Compound 7h, 6′-Chloro-1-(4-chlorophenyl)-1,4,6,7-tetrahydrospiro[benzo[d][1,2,3]triazole-5,2′-chromene]], in data set [1] (setting [3]), the MIC amounted to 65.3 µM (≈ 25.1 µg/mL).

Take `COc1ccc(-n2nnc3c2CCC2(C=Cc4cc(Cl)ccc4O2)C3)cc1` (centres unmarked) [Compound 7i, 6′-Chloro-1-(4-methoxyphenyl)-1,4,6,7-tetrahydrospiro[benzo[d][1,2,3]triazole-5,2′-chromene]]: the MIC is 4.11 µM (≈ 1.56 µg/mL) in data set [1] (setting [3]) and 1.56 µg in data set [1] (setting [4]). For the same compound, the “Cytotoxicity in % inhibition” value in data set [2] is reported as 29.36%.

In turn, `Clc1ccc2c(c1)C=CC1(CCc3c(nnn3Cc3ccccc3)C1)O2` (centres unmarked) [Compound 7j, 1-Benzyl-6′-chloro-1,4,6,7-tetrahydrospiro[benzo[d][1,2,3]triazole-5,2′-chromene]] returned an MIC in data set [1] (setting [3]) of 34.4 µM (≈ 12.5 µg/mL).

Take `Cc1cc2c(cc1Cl)C=CC1(CCc3c(nnn3-c3ccccc3)C1)O2` (centres unmarked) [Compound 7k, 6′-Chloro-7′-methyl-1-phenyl-1,4,6,7-tetrahydrospiro[benzo[d][1,2,3]triazole-5,2′-chromene]]: the MIC was 8.60 µM (≈ 3.13 µg/mL) in data set [1] (setting [6]) and 8.6 µM (≈ 3.13 µg/mL) in data set [1] (setting [3]). The “Cytotoxicity in % inhibition” value in data set [2] was determined as 24.90%.

On to `Cc1ccc(-n2nnc3c2CCC2(C=Cc4cc(Cl)c(C)cc4O2)C3)cc1` (centres unmarked) [Compound 7l, 6′-Chloro-7′-methyl-1-(p-tolyl)-1,4,6,7-tetrahydrospiro[benzo[d][1,2,3]triazole-5,2′-chromene]], for which the MIC in data set [1] (setting [5]) was found to be 69 µM (≈ 26.1 µg/mL).

In the case of `Cc1cc2c(cc1Cl)C=CC1(CCc3c(nnn3-c3ccc(Cl)cc3)C1)O2` (centres unmarked) [Compound 7m, 6′-Chloro-1-(4-chlorophenyl)-7′-methyl-1,4,6,7-tetrahydrospiro[benzo[d][1,2,3]triazole-5,2′-chromene]], the figures for the MIC in data set [1] (setting [6]) and in data set [1] (setting [3]) were 7.87 µM (≈ 3.13 µg/mL) and 7.67 µM (≈ 3.05 µg/mL), respectively. Also, in data set [2], the “Cytotoxicity in % inhibition” value is reported as 24.76%.

Consider `COc1ccc(-n2nnc3c2CCC2(C=Cc4cc(Cl)c(C)cc4O2)C3)cc1` (centres unmarked) [Compound 7n, 6′-Chloro-1-(4-methoxyphenyl)-7′-methyl-1,4,6,7-tetrahydrospiro[benzo[d][1,2,3]triazole-5,2′-chromene]], for which, in data set [1] (setting [3]), the MIC was determined as 15.9 µM (≈ 6.26 µg/mL). Moreover, in data set [2], the “Cytotoxicity in % inhibition” value stood at 22.64%.

In turn, `Cc1cc2c(cc1Cl)C=CC1(CCc3c(nnn3Cc3ccccc3)C1)O2` (centres unmarked) [Compound 7o, 1-Benzyl-6′-chloro-7′-methyl-1,4,6,7-tetrahydrospiro[benzo[d][1,2,3]triazole-5,2′-chromene]] showed an MIC in data set [1] (setting [3]) of 66.3 µM (≈ 25.1 µg/mL).

In data set [1] (setting [3]), `CC[C@@H](CO)NCCN[C@@H](CC)CO` [Ethambutol, reference compound] gave an MIC of 7.64 µM (≈ 1.56 µg/mL).

`NNC(=O)c1ccncc1` [Isoniazid, reference compound] returned an MIC in data set [1] (setting [3]) of 0.437 µM (≈ 0.0599 µg/mL).

In the case of `CO[C@H]1/C=C/O[C@@]2(C)Oc3c(C)c(O)c4c(O)c(c(/C=N/N5CCN(C)CC5)c(O)c4c3C2=O)NC(=O)/C(C)=C\C=C\[C@H](C)[C@H](O)[C@@H](C)[C@@H](O)[C@@H](C)[C@H](OC(C)=O)[C@@H]1C` [Rifampicin, reference compound], the MIC in data set [1] (setting [6]) stood at 0.50 µM (≈ 0.411 µg/mL); in data set [1] (setting [3]), 0.5 µM (≈ 0.411 µg/mL).

Compound `NC(=O)c1cnccn1` [pyrazinamide, reference compound] returned an MIC in data set [1] (setting [3]) of 50.8 µM (≈ 6.25 µg/mL).
